Experimental data from patent US5994320A, “Antisense oligonucleotides and methods for treating central nervous system tumors” (Regents of the University of Minnesota, priority 1997, dated 1999).

Key:
[1] = Toxicity of intraventricular antisense administration (Whitesell et al.); type: in vivo, rats; settings: 0.1 nmole/hr versus toxic 3.0 nmole/hr
Method: In a study assessing the toxicity of intraventricular antisense administration (Whitesell et al., Proc. Natl. Acad. Sci., 90:4665-4669, 1993), it was determined that dosages of 1.5 nmoles/hr were well tolerated in rats while a dose of 3.0 nmole/hr was toxic. […] Therefore, it is believed that an increase in dose of the c-myb antisense can be administered that will improve survival without toxic side effects.

[2] = tested on: U87 gliomas; assay: Intraflank U87 tumors in nude mice, intratumoral injection; type: in vivo, athymic nude mice; settings: for Change in tumor size at day 21: 100 μM, 50 μl (5 nanomoles/injection) intratumorally every two days, days 13 to 21
Method: Solid U87 gliomas were established in the flanks of athymic nude mice aged 4-6 weeks. Each animal received 5×10^6 U87 cells in 200 μl of medium. The cells were injected subcutaneously into one flank through a 25-gauge needle attached to a tuberculin syringe.
Cells were initially grown in a monolayer at 37° C. in DMEM medium containing 10% fetal calf serum, 2 mM glutamine, 1000 IU/ml of penicillin, and 100 μg/ml of streptomycin. Cells were harvested from culture flasks using trypsin immediately before injection and were kept on ice until the time of injection. Before injection the number of viable cells were confirmed by trypan blue exclusion. Past experience has shown that approximately 90% of tumors will successfully grow in the flank after U87 cell inoculation.
Tumors were allowed to grow for 14 days. Tumor size was evaluated with Vernier calipers using the formula 1/2 length(width)^2 where the length was the longest dimension and the width was the diameter perpendicular to the length. AONcmyb(2-7) was then injected using a Hamilton syringe directly into the tumor at a concentration of 0, 1, 10, or 100 μM in 50 μl volumes on alternate days for 8 days (FIG. 1).
The effects of administering 100 μM concentrations of AONcmyb(2-7) and AONcmyb(182-188) with their corresponding nonsense oligonucleotides, NONcmyb(2-7) and NONcmyb(182-188) along with Hank's Balanced Salt Solution as controls was compared. From days 13 to 21 animals received 50 μl(5 nanomoles/injection) injections intratumorally of either antisense, nonsense, or HBSS every two days.

[3] = tested on: EGF receptor; assay: EGF receptor expression by flow cytometry in T98 and U87 cells; type: cell-based, human; settings: 10 μM, 48 hours
Method: The effects of c-myb antisense on the expression of epidermal growth factor (EGF) receptors in T98 and U87 cells in vitro was examined using a flow cytometric approach to quantify fluorescently labeled receptors. T98 and U87 cell lines that were treated with 10 μM antisense oligonucleotides for 48 hours were harvested. About 10^5 10^6 (number of cells) were incubated with fluorescently labeled antibody to EGF receptor (available from Upstate Biotech, Inc.) for 24 hours. The cells were then analyzed using a Beckman FACS cell sorter.
Cells for receptor expression assays were harvested, washed twice in PBS and fixed in 70% ethanol of 2% paraformaldehyde. After washing, cells were incubated with appropriate concentrations of specific receptor antibodies for 2-12 hours. Antibody conjugated FITC was then added to the cell suspensions. Cells were washed well between steps and resuspended in Hanks balanced salt solution, 1% sodium azide, and 1% bovine serum albumin. FITC fluorescence was then assayed by flow cytometry counting 10,000 cells per sample. The amount of fluorescently labeled EGF receptor and PDGF receptor were determined by standard flow cytometry analysis.

[4] = tested on: T98 glioblastoma cell line; assay: 3H-thymidine assay of T98 cell proliferation; type: cell-based, human; settings: T98 cells, 5 nanomoles/500 microliters; for 3H-thymidine incorporation, mean ± SEM: 2 days; for % Control (proliferation): 2 days (48 hours)
Method: (§1) Antisense oligonucleotides were incubated with glioblastoma (T98, U87, U373) and medulloblastoma (DAOY) cell lines when they were approximately 60% confluent. Antisense oligonucleotides were added at 5 nanomoles/500 microliters and incubated for 2 days in phosphate buffered saline. Growth of cells lines was measured at 2 days using a standard ^3 H-thymidine assay. Coligan et al., Current Protocols in Immunology, Vol. 2, pg.

[5] = tested on: U87 glioblastoma cell line; assay: 3H-thymidine assay of U87 cell proliferation; type: cell-based, human; settings: U87 cells, 5 nanomoles/500 microliters; for 3H-thymidine incorporation, mean ± SEM: 2 days; for % Control (proliferation): 2 days (48 hours)
Method: as §1

[6] = tested on: U373 glioblastoma cell line; assay: 3H-thymidine assay of U373 cell proliferation; type: cell-based, human; settings: U373 cells, 5 nanomoles/500 microliters; for 3H-thymidine incorporation, mean ± SEM: 2 days; for % Control (proliferation): 2 days (48 hours)
Method: as §1

[7] = tested on: DAOY medulloblastoma cell line; assay: 3H-thymidine assay of DAOY cell proliferation; type: cell-based, human; settings: DAOY cells, 5 nanomoles/500 microliters; for 3H-thymidine incorporation, mean ± SEM: 2 days; for % Control (proliferation): 2 days (48 hours)
Method: as §1

[8] = tested on: human U87 glioblastoma cells; assay: Intracerebral infusion, survival of nude rats with intrastriatal U87 xenografts; type: in vivo; settings: 0.1 nmole/hour continuous infusion over 14 days; saline animals survived only 13 days
Method: The effects of infusing c-myb antisense to codons 2-7 on the survival of nude rats with intrastriatal xenografts of human U87 glioblastoma cells was examined. A dose of 0.1 nmole/hour was infused. This dose is equivalent to the delivery of 100 µM of c-myb antisense injected directly into intraflank U87 tumors in 50 Ul volumes on alternate days. Animals received continuous infusions of either c-myb antisense or saline by Alzet Osmotic Minipump (Alza, Palo Alto, Calif.) over a period of 14 days. The pump was implanted immediately above the site of the tumor.

5'-GTG CCG GGG TCT TCG GGC-3' (antisense GTGCCGGGGTCTTCGGGC; chemistry not given here) [AONcmyb(2-7), antisense to the initiator region of c-myb, codons 2-7]
Factor by which the dose used is below the toxic level for antisense in the brain [1]: 30 times
Suppression of tumor growth, comparison of concentrations ([2]; 100 μM versus 0, 1, 10 μM, 50 μl intratumoral on alternate days for 8 days): most effective in suppressing tumor growth
Change in tumor size at day 21 [2]: no significant change
EGF receptor binding, % of control levels [3]: 13%-30%
3H-thymidine incorporation, mean ± SEM [4]: 67,318 ± 6,183 dpm
% Control (proliferation) [4]: 53%
3H-thymidine incorporation, mean ± SEM [5]: 74,688 ± 10,145 dpm
% Control (proliferation) [5]: 20%
3H-thymidine incorporation, mean ± SEM [6]: 402,504 ± 49,647 dpm
% Control (proliferation) [6]: 52%
3H-thymidine incorporation, mean ± SEM [7]: 604,061 ± 59,989 dpm
% Control (proliferation) [7]: 53%
Animals with increased survival times [8]: 25%

5'-TGTAGAATTCCAGTGGTTCTT-3' (antisense TGTAGAATTCCAGTGGTTCTT; chemistry not given here) [AONcmyb(182-188)]
Change in tumor size at day 21 [2]: no significant change
EGF receptor binding, % of control levels [3]: 30%-35%
3H-thymidine incorporation, mean ± SEM [4]: 78,457 ± 3,224 dpm
% Control (proliferation) [4]: 61%
3H-thymidine incorporation, mean ± SEM [5]: 92,968 ± 37,259 dpm
% Control (proliferation) [5]: 25%
3H-thymidine incorporation, mean ± SEM [6]: 588,082 ± 25,836 dpm
% Control (proliferation) [6]: 76%
3H-thymidine incorporation, mean ± SEM [7]: 517,725 ± 105,450 dpm
% Control (proliferation) [7]: 45%
